Results as given in US20220112233A1, “METHOD FOR PRODUCING PEPTIDE COMPOUND, PROTECTIVE GROUP-FORMING REAGENT, AND CONDENSED POLYCYCLIC AROMATIC HYDROCARBON COMPOUND” (FUJIFILM CORPORATION, priority 2019, published 2022).

Experiment: Solution stability of N-protected and C-protected amino acid
Type: physicochemical
Conditions: N-protected and C-protected amino acid (Fmoc-Leu condensed with the listed compound) in tetrahydrofuran and acetic acid, room temperature, three days; amount remaining (survival rate)
Procedure: The obtained N-protected and C-protected amino acid (10 mg) and 2,6-di-tert-butyl-4-methylphenol (internal standard: 8 mg) were dissolved in a tetrahydrofuran solution (20 mL) and acetic acid (2 mL), respectively, and after allowing time to pass at room temperature for three days, the amount of remaining N-protected and C-protected amino acid was determined and evaluated based on the following standard.
Regarding the evaluation of the solution stability, a case of “B” or higher was regarded as acceptable.
It can be said that, as the solution stability is higher, peptide stability is high, side reactions can be suppressed, and yield is excellent.
—Evaluation Standard— • “A”: survival rate was 99% or more. • “B”: survival rate was 97% or more and less than 99%. • “C”: survival rate was 95% or more and less than 97%. • “D”: survival rate was less than 95%.

For `CCCCCCCCCCCCCCCCCCCCCCOc1ccc(C(O)c2ccc(OCCCCCCCCCCCCCCCCCCCCCC)cc2)cc1` [Comparative compound (1-1)], the Solution stability was “C (survival rate was 95% or more and less than 97%)”.
For `CCCCCCCCCCCCCCCCCCCCCCOc1cc(COc2ccc3cc(C(O)c4ccc(OC)cc4)ccc3c2)cc(OCCCCCCCCCCCCCCCCCCCCCC)c1` (centres unmarked) [Compound (1-2)], the Solution stability was “A (survival rate was 99% or more)”.
